Legend:
UT7 = assay: MTT colorimetric cell proliferation assay, UT7 cells; type: cell-based, human; conditions: for inhibition of cell growth, dose and time dependence: various concentrations, 24, 48 and 72 hours
Description: (§1) The anti-cancer activities of the compounds of the invention have been determined in-vitro in human and mouse leukemia cell lines. The procedure was carried out using the colorimetric methyl thiazol tetrazoliumbromide (MTT) assay for measuring cell proliferation (Carmichael et al., (1987), Cancer Res. 47: 936-942).
(§2) The Human leukemia cell lines K562 (Lozzio and Lozzio (1975) Blood, 45, 321-334) and UT7 (Komatsu et al. (1991), Cancer Res. 51, 341-348) were grown in RPMI 1640 and IMDM medium respectively, supplemented with 10% fetal bovine serum (FBS), 2 mM L-glutamine, 100 ug/ml streptomycin and 100 u/ml penicillin. The murine Ba/F3 cell line stably transfected with the erythropoietin receptor (EPO-R) cDNA (D'Andrea et al., (1991), Mol. Cell. Biol. 11, 1980-1987) was cultured in RPMI medium supplemented with recombinant human EPO (rHuEPO, 0.5 U/ml). UT7 cells were cultured in the presence of 2 U/ml rHuEPO. Cells were maintained at 37° C. in a 5% CO2 humidified incubator.
(§3) Cells (4×10^3) were seeded in triplicate into 96-well, flat-bottom culture plates and grown in the presence of the compounds at different concentrations for 24, 48 and 72 hours. Untreated cells served as control. After incubation with the compound, cell growth was determined using the colorimetric methylthiazole tetrazolium bromide (MTT) assay (Mosmann (1983), J Immunol Methods 65, 55-63). Briefly, MTT was added to a final concentration of 5 μg/ml to each well and further incubated for 4 hours at 37° C. After complete solubilization of the dye by acid/alcohol (0.04 N HCl in 2-propanol), plates were read at 570 nm in an ELISA reader, reference 690 nm. Growth of cells exposed to treatment was calculated as the percent of optical density (OD) of the compound-treated cells to that of the non-treated cells.

[1] = system: Ba/F3 cells expressing the EPO-R; assay: MTT colorimetric cell proliferation assay, Ba/F3 cells expressing EPO-R; type: cell-based, murine
Description: as §1, §2, §3

[2] = system: UT-7, K562 and Ba/F3 cell lines; assay: MTT colorimetric cell proliferation assay, statements across the three cell lines; type: cell-based, human and mouse
Description: as §1, §2, §3

[3] = system: Ba/F3, K562 and UT7 cell lines; assay: Cell morphology by phase contrast microscopy; type: cell-based, human and mouse; conditions: 0.01 μM or 0.2 μM, over-night
Description: Cells were viewed in phase contrast microscopy. The size bar indicates a size of 15 um.
The potential effects of Salarin C on cell proliferation were also tested. Human leukemic cell lines UT-7 and K562, and the murine pro B cell line Ba/F3 which stably expresses the EPO receptor (EPO-R) were used as targets. […] Salarin C at concentrations of 0.0005-0.5 μg/ml was added to the cells for 24 hours, and cell viability was determined by the MTT assay (FIG. 24B). ˜50% inhibition of cell proliferation was obtained at 0.5 μg/ml (1 μM) of Salarin C for the UT-7 cell line and at 0.05 μg/ml (0.1 μM) for the K562 cell line. […] The effect of Salarin C on cell viability was also observed by microscopy (FIG. 25).

K562 = assay: MTT colorimetric cell proliferation assay, K562 cells; type: cell-based, human
Description: as §1, §2, §3

Compound	inhibition at 1 µg/mL (UT7; Homo sapiens, UT7 cells, 1 μg/ml, 72 h of exposure)	inhibition of cell growth, dose and time dependence (UT7; UT7 cells)	inhibition at 0.5 µg/mL ([1]; Mus musculus, BaF3, Ba/F3 cells expressing EPO-R, 0.5 ug/ml, 72 h of exposure)	inhibition at 1 µM (UT7; Homo sapiens, UT7, UT-7 cells, 0.5 μg/ml (1 μM), 24 hours)	cell viability (UT7; UT-7 cells, 0.5 μg/ml (1 μM), 72 h)	relative potency ([2]; 0.5 μg/ml, 72 h, three tested cell lines)	anti-proliferative activity, dose dependence ([2]; 0.0005-0.5 μg/ml, 24 hours)	IC50 ([2]; 24 hours, across the tested cell lines, read-out: effective concentration range (IC50))	cell viability and morphology by microscopy [3]	proliferation ([1]; Ba/F3 cells, 0.1 μM, 24 hours)	cell viability ([1]; Ba/F3 cells, 0.5 μg/ml (1 μM), 72 h)	cell viability (K562; 0.5 μg/ml (1 μM), 72 h)	inhibition at 0.1 µM (K562; Homo sapiens, 0.05 μg/ml (0.1 μM), 24 hours)	inhibition at 0.5 µg/mL (UT7; Homo sapiens, UT7 cells, 0.5 ug/ml, 72 h of exposure)	inhibition at 0.5 µg/mL (K562; Homo sapiens, 0.5 ug/ml, 72 h of exposure)	inhibition of cell growth, dose and time dependence (K562; various concentrations, 24, 48 and 72 hours)
CCCCCCCC(=O)OCC/C=C/C1OC1C1OC(=O)/C=C\C=C\C(=O)N(C(C)=O)C(=O)/C=C(/C)CCC2OC2C1OC(=O)NC(C)=O (centres unmarked) [Salarin A]	45%	in a dose and time dependent manner	48%													
CCCCCCCC(=O)OCC/C=C/C1OC1C1OC(=O)/C=C\C=C\c2nc(oc2C)/C=C(/C)CCC2OC2C1OC(=O)NC(C)=O (centres unmarked) [Salarin C]				~50%	abolished nearly all viability	more potent than Salarins A and B and Tulearin A	dose-dependent	100 to 1000 nM	lower viability and characteristics of apoptotic cells	completely arrested	abolished nearly all viability	abolished nearly all viability	~50%			
CCCCC/C=C/C(C)=C/C1CC(C)C/C=C/CCC(O)C(OC(N)=O)CCC(C)CC(O)C(C)C(=O)O1 (centres unmarked) [Tulearin A]		in a dose and time dependent manner												35%	62%	in a dose and time dependent manner

— US20100311757A1, “Salarins And Tulearins, Compositions And Uses Thereof” (RAMOT AT TEL-AVIV UNIVERSITY LTD., priority 2007, published 2010)
